Data published in US8846947B2, “Benzimidazoles and related analogs as sirtuin modulators” (GlaxoSmithKline LLC, priority 2008, dated 2014).

Biological target: T1, SIRT1 (Homo sapiens, UniProt Q96EB6)
T1 sequence (Q96EB6 1-747): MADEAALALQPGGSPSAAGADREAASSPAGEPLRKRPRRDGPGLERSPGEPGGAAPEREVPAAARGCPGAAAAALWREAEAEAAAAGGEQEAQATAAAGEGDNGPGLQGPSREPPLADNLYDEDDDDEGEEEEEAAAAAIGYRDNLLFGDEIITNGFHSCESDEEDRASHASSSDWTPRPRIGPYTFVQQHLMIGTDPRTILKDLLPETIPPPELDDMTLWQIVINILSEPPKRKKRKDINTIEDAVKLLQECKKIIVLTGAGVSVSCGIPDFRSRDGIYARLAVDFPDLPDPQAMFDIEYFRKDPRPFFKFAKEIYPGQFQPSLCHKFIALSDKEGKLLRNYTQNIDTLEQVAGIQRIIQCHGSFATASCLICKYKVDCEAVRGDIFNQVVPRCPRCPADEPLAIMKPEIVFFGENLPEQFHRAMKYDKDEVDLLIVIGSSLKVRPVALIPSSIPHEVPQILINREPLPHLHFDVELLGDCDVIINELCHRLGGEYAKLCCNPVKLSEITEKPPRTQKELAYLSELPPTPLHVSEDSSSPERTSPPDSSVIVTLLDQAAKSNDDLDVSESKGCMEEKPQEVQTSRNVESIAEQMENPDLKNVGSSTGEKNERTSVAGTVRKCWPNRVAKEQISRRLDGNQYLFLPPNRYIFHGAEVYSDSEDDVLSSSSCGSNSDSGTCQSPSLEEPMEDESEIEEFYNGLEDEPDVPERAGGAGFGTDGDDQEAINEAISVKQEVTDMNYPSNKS
Assay: Mass spectrometry based SIRT1 deacetylase activation assay (acetylated p53-derived peptide substrate)
Type: biochemical
Conditions: 0.5 μM peptide substrate, 120 μM βNAD+, 10 nM SIRT1, 25 min at 25° C.; for EC1.5: read-out: EC1.5

Fold Act. (percent maximum fold activation)	EC1.5 [nM]	SMILES
A (Fold activation >200%)	1000 to 25000	O=C(Nc1nccs1)c1cccc2[nH]c(-c3ccc(N4CCCC4)cc3C(F)(F)F)nc12 [Compound 572]
A (Fold activation >200%)	< 1000	O=C(Nc1cccnc1)c1cccc2[nH]c(-c3ccc(N4CCCC4)cc3C(F)(F)F)nc12 [Compound 573]
A (Fold activation >200%)	< 1000	O=C(Nc1cccnc1)c1cccc2[nH]c(-c3ccc(N4CC[C@H](F)C4)cc3C(F)(F)F)nc12 [Compound 574]
A (Fold activation >200%)	< 1000	O=C(Nc1cccnc1)c1cccc2[nH]c(-c3ccc(N4CC[C@@H](F)C4)cc3C(F)(F)F)nc12 [Compound 575]
A (Fold activation >200%)	< 1000	C[C@@H]1CN(c2cccc(-c3nc4c(C(=O)Nc5nccs5)cccc4[nH]3)c2)C[C@H](C)O1 [Compound 576, 2-(3-(2,6-dimethylmorpholino)phenyl)-N-(thiazol-2-yl)-1H-benzo[d]imidazole-4-carboxamide]
A (Fold activation >200%)	< 1000	C[C@@H]1CN(c2cccc(-c3nc4c(C(=O)Nc5ccccn5)cccc4[nH]3)c2)C[C@H](C)O1 [Compound 577]
B (Fold Activation <200%)	1000 to 25000	C[C@@H]1CN(CCOc2ccccc2-c2nc3c(C(=O)Nc4nccs4)cccc3[nH]2)C[C@H](C)O1 [Compound 578]
B (Fold Activation <200%)	> 25000	O=C(Nc1nccs1)c1cccc2[nH]c(-c3ccccc3OCCN3CCC(F)(F)CC3)nc12 [Compound 579]
A (Fold activation >200%)	1000 to 25000	CC(C)(C)NCCOc1ccccc1-c1nc2c(C(=O)Nc3nccs3)cccc2[nH]1 [Compound 580]
B (Fold Activation <200%)	> 25000	FC(F)(F)c1cccc(-c2nc3c(Nc4ccccn4)cccc3[nH]2)c1 [Compound 581, N-(pyridin-2-yl)-2-(3-(trifluoromethyl)phenyl)-1H-benzo[d]imidazol-4-amine]
B (Fold Activation <200%)	> 25000	FC(F)(F)c1ccccc1-c1nc2c(Nc3ccccn3)cccc2[nH]1 [Compound 582]
A (Fold activation >200%)	1000 to 25000	O=C(Nc1nccs1)c1cccc2[nH]c(-c3cc(F)ccc3OCCN3CCOCC3)nc12 [Compound 583]
A (Fold activation >200%)	1000 to 25000	O=C(Nc1ccccn1)c1cccc2[nH]c(-c3cc(F)ccc3OCCN3CCOCC3)nc12 [Compound 584]
B (Fold Activation <200%)	1000 to 25000	O=C(Nc1nccs1)c1cccc2[nH]c(-c3cc(F)cc(F)c3OCCN3CCOCC3)nc12 [Compound 585]
B (Fold Activation <200%)	1000 to 25000	O=C(Nc1ccccn1)c1cccc2[nH]c(-c3cc(F)cc(F)c3OCCN3CCOCC3)nc12 [Compound 586]
B (Fold Activation <200%)	1000 to 25000	CC(C)(C)c1cccc(-c2nc3c(C(=O)Nc4nccs4)cccc3[nH]2)c1OCCN1CCOCC1 [Compound 587]
B (Fold Activation <200%)	1000 to 25000	CC(C)(C)c1cccc(-c2nc3c(C(=O)Nc4ccccn4)cccc3[nH]2)c1OCCN1CCOCC1 [Compound 588]
A (Fold activation >200%)	< 1000	Cc1nc(NC(=O)c2cccc3[nH]c(-c4ccc(N5CCOCC5)cc4C(F)(F)F)nc23)sc1C [Compound 589]
A (Fold activation >200%)	< 1000	Cc1cc(C)nc(NC(=O)c2cccc3[nH]c(-c4ccc(N5CCOCC5)cc4C(F)(F)F)nc23)c1 [Compound 590]
A (Fold activation >200%)	< 1000	O=C(Nc1ccncn1)c1cccc2[nH]c(-c3ccc(N4CCOCC4)cc3C(F)(F)F)nc12 [Compound 591]
A (Fold activation >200%)	< 1000	Cc1cc(NC(=O)c2cccc3[nH]c(-c4ccc(N5CCOCC5)cc4C(F)(F)F)nc23)n(C)n1 [Compound 592]
A (Fold activation >200%)	< 1000	O=C(Nc1ccncn1)c1cccc2[nH]c(-c3ccc(N4CCOCC4)cc3C(F)F)nc12 [Compound 593]

The remaining lines, values behind:

SMILES	Fold Act. (percent maximum fold activation)	EC1.5 [nM]
O=C(Nc1nccs1)c1cccc2[nH]c(-c3ccc(N4CCOCC4)cc3C(F)F)nc12 [Compound 551, 2-(2-(difluoromethyl)-4-morpholinophenyl)-N-(thiazol-2-yl)-1H-benzo[d]imidazole-4-carboxamide]	A (Fold activation >200%)	< 1000
Cc1cnc(NC(=O)c2cccc3[nH]c(-c4ccc(N5CCOCC5)cc4C(F)F)nc23)s1 [Compound 552]	A (Fold activation >200%)	< 1000
O=C(Nc1ccccn1)c1cccc2[nH]c(-c3ccc(N4CCOCC4)cc3C(F)F)nc12 [Compound 553]	A (Fold activation >200%)	< 1000
O=C(Nc1cccnc1)c1cccc2[nH]c(-c3ccc(N4CCOCC4)cc3C(F)F)nc12 [Compound 554]	A (Fold activation >200%)	< 1000
O=C(Nc1cccnn1)c1cccc2[nH]c(-c3ccc(N4CCOCC4)cc3C(F)F)nc12 [Compound 555]	A (Fold activation >200%)	< 1000
O=C(Nc1nccs1)c1cccc2[nH]c(-c3ccc(OC[C@H](O)CO)cc3C(F)F)nc12 [Compound 556, (R)-2-(2-(difluoromethyl)-4-(2,3-dihydroxypropoxy)phenyl)-N-(thiazol-2-yl)-1H-benzo[d]imidazole-4-carboxamide]	A (Fold activation >200%)	< 1000
Cc1cnc(NC(=O)c2cccc3[nH]c(-c4ccc(OCC(O)CO)cc4C(F)F)nc23)s1 (stereo not drawn) [Compound 557]	A (Fold activation >200%)	< 1000
O=C(Nc1ccccn1)c1cccc2[nH]c(-c3ccc(OCC(O)CO)cc3C(F)F)nc12 (stereo not drawn) [Compound 558]	A (Fold activation >200%)	< 1000
O=C(Nc1nccs1)c1cccc2[nH]c(-c3ccc(F)cc3C(F)F)nc12 [Compound 559, 2-(2-(difluoromethyl)-4-fluorophenyl)-N-(thiazol-2-yl)-1H-benzo[d]imidazole-4-carboxamide]	A (Fold activation >200%)	< 1000
Cc1cnc(NC(=O)c2cccc3[nH]c(-c4ccc(F)cc4C(F)F)nc23)s1 [Compound 560]	A (Fold activation >200%)	< 1000
O=C(Nc1ccccn1)c1cccc2[nH]c(-c3ccc(F)cc3C(F)F)nc12 [Compound 561]	A (Fold activation >200%)	< 1000
O=C(Nc1nccs1)c1cccc2[nH]c(-c3ccc(Cl)cc3C(F)F)nc12 [Compound 562]	A (Fold activation >200%)	< 1000
Cc1cnc(NC(=O)c2cccc3[nH]c(-c4ccc(Cl)cc4C(F)F)nc23)s1 [Compound 563]	A (Fold activation >200%)	< 1000
O=C(Nc1ccccn1)c1cccc2[nH]c(-c3ccc(Cl)cc3C(F)F)nc12 [Compound 564]	A (Fold activation >200%)	1000 to 25000
O=C1COc2ccc(-c3nc4c(C(=O)Nc5ccccn5)cccc4[nH]3)cc2N1 [Compound 565]	B (Fold Activation <200%)	1000 to 25000
O=C(Nc1cccnc1)c1cccc2[nH]c(-c3cccc(OC4CCNCC4)c3)nc12 [Compound 567]	A (Fold activation >200%)	< 1000
O=C(Nc1cccnc1)c1cccc2[nH]c(-c3ccnc(N4CCCC4)c3)nc12 [Compound 568]	B (Fold Activation <200%)	> 25000
CCCN1CCc2cc(-c3nc4c(C(=O)Nc5cccnc5)cccc4[nH]3)ccc21 [Compound 569]	A (Fold activation >200%)	1000 to 25000
CCCN1CCc2cc(-c3nc4c(C(=O)Nc5ncc(C)s5)cccc4[nH]3)ccc21 [Compound 570]	B (Fold Activation <200%)	1000 to 25000
C[C@@H]1CN(c2ccc(-c3nc4c(C(=O)Nc5ccccn5)cccc4[nH]3)c(C(F)(F)F)c2)C[C@H](C)O1 [Compound 571]	A (Fold activation >200%)	< 1000
